Measurements taken from patent US4605674A, “Substituted acetophenones and compositions containing them” (Hoffmann-La Roche Inc., priority 1979, dated 1986).
Converted amounts (≈) assume the structure as drawn. Read-outs that look alike come from different tables or passages of the source.

Key:
rhinovirus HGP = assay: Inhibition of viral cytopathogenic effect (c.p.e.) of rhinovirus HGP in HeLa cells; format: cell-based, human rhinoviruses; details: Enterovirus, 48 h, read-out: IC50 against rhinovirus HGP (concentration inhibiting the viral c.p.e. by 50%)
Procedure: A suspension of HeLa cells (6×10^4) was mixed with rhinovirus HGP (3×10^3 plaque forming units, PFU) and was plated in a microtest plate containing the compounds to be tested serially diluted. The cells were then cultured with Eagle's minimum essential medium containing 2% calf serum, 1% tryptose phosphate broth, 100 μg/ml of streptomycin sulfate and 20 unit/ml of penicillin G. Viral c.p.e. (cytopathogenic effect) was observed by a microscope after 2 days culture at 33° C.
The antiviral activity of the tested compounds is expressed by the concentration inhibiting the viral c.p.e. by 50% when compared to the control culture (IC50).

in vivo = details: mouse, DDY mice, single dose
Procedure: ^(1) DDY mice weighing 15-20 g were treated with a single dose of the
compound. Survivors were recorded on day 21.
^(2) Compounds were dissolved in dimethylsulfoxide.
^(3) Compounds were suspended with solution of 0.5% carboxymethyl

[1] = ip, i.p., dissolved in dimethylsulfoxide, day 21, read-out: LD50 i.p.
[2] = po, p.o., suspended in 0.5% carboxymethyl cellulose, day 21, read-out: LD50 p.o.
[3] = HeLa cells, 2 days culture at 33° C.

Row | Structure (SMILES) | IC50 (rhinovirus HGP; HeLa) [µg/mL] | LD50 at 504 h (in vivo; [1]) [mg/kg] | LD50 at 504 h (in vivo; [2]) [mg/kg] | IC50 (rhinovirus HGP; [3]) [µg/mL]
1 | COc1cc(O)c(C(=O)/C=C/c2ccc(C)cc2)c(OC)c1 | 0.01 (≈ 0.0335 µM) | > 1000 | > 5000 | –
2 | CCOc1ccc(/C=C/C(=O)c2c(O)cc(OCC)cc2OCC)cc1 | 0.25 (≈ 0.701 µM) | > 1000 | > 3000 | –
3 | COc1cc(O)c(C(=O)/C=C/c2ccc(N(C)C)cc2)c(OC)c1 | 0.02 to 0.06 (≈ 0.0611 to 0.183 µM) | > 1000 | > 5000 | –
4 | COc1cc(O)c(C(=O)/C=C/c2ccc(OC)c(O)c2)c(OC)c1 [2',3-dihydroxy-4,4',6'-trimethoxychalcone] | 0.1 to 0.3 (≈ 0.303 to 0.908 µM) | > 500 | > 1000 | –
5 | CCOc1cc(O)c(C(=O)C=Cc2ccc(C)o2)c(OCC)c1 [2',4'-diethoxy-6'-hydroxy-3-(5-methyl-2-furyl)-acrylophenone] | 0.04 to 0.12 (≈ 0.126 to 0.379 µM) | > 500 | > 1000 | –
6 | CCOc1cc(O)c(C(=O)/C=C/c2ccc(OC)cc2)c(OCC)c1 [2',4'-diethoxy-6'-hydroxy-4-methoxychalcone] | 0.03 to 0.1 (≈ 0.0876 to 0.292 µM) | > 1000 | > 2000 | –
7 | CCC(=O)Oc1cc(OC)cc(OC)c1C(=O)C=Cc1ccc2c(c1)OCO2 [2',4'-dimethoxy-3,4-(methylenedioxy)-6'-(propionyloxy)-chalcone] | 0.1 (≈ 0.26 µM) | > 500 | > 1000 | –
8 | CCC(=O)Oc1cc(OC)cc(OC)c1C(=O)C=Cc1cccn1C [2',4'-dimethoxy-3-(1-methylpyrrol-2-yl)-6'-(propionyloxy)-acrylophenone] | 0.3 (≈ 0.874 µM) | > 500 | > 5000 | –
9 | CCC(=O)Oc1cc(OC)cc(OC)c1C(=O)C=Cc1ccc(C)o1 [2',4'-dimethoxy-3-(5-methyl-2-furyl)-6'-(propionyloxy)-acrylophenone] | 0.03 to 0.1 (≈ 0.0871 to 0.29 µM) | > 500 | > 2000 | –
10 | CCC(=O)Oc1cc(OC)cc(OC)c1C(=O)/C=C/c1ccc(SC)cc1 [2',4'-dimethoxy-4-(methylthio)-6'-(propionyloxy)-chalcone] | 0.03 to 0.1 (≈ 0.0776 to 0.259 µM) | > 1000 | > 5000 | –
11 | CCC(=O)Oc1cc(OC)cc(OC)c1C(=O)/C=C/c1ccc(C)cc1 [2',4'-dimethoxy-4-methyl-6'-(propionyloxy)-chalcone] | 0.03 (≈ 0.0846 µM) | > 1000 | > 5000 | –
12 | CCC(=O)Oc1cc(OC)cc(OC)c1C(=O)C=Cc1cccs1 [2',4'-dimethoxy-6'-(propionyloxy)-3-(2-thienyl)-acrylophenone] | 0.1 to 0.3 (≈ 0.289 to 0.866 µM) | > 1000 | > 5000 | –
13 | CCCOc1ccc(/C=C/C(=O)c2c(OC)cc(OC)cc2OC(=O)CC)cc1 [2',4'-dimethoxy-6'-(propionyloxy)-4-propoxychalcone] | 0.1 to 0.3 (≈ 0.251 to 0.753 µM) | > 1000 | > 5000 | –
14 | CCC(=O)Oc1cc(OC)cc(OC)c1C(=O)/C=C/c1ccccc1 [2',4'-dimethoxy-6'-(propionyloxy)-chalcone] | 0.3 to 1 (≈ 0.881 to 2.94 µM) | > 1000 | > 5000 | –
15 | CCOc1ccc(/C=C/C(=O)c2c(OCC)cc(OCC)cc2OC(=O)CC)cc1 [2',4,4'-triethoxy-6'-(propionyloxy)-chalcone] | 0.1 to 0.3 (≈ 0.242 to 0.727 µM) | > 1000 | > 5000 | –
16 | COc1ccc(/C=C/C(=O)c2c(OC)cc(OC)cc2OC(=O)c2cccnc2)cc1 [2',4,4'-trimethoxy-6'-(nicotinoyloxy)chalcone] | 0.01 to 0.025 (≈ 0.0238 to 0.0596 µM) | > 500 | > 4000 | –
17 | CCCCCCCCCCCCCCCCCC(=O)Oc1cc(OC)cc(OC)c1C(=O)/C=C/c1ccc(OC)cc1 [2',4,4'-trimethoxy-6'-(octadecanoyloxy)chalcone] | 0.05 to 0.1 (≈ 0.0861 to 0.172 µM) | > 500 | > 4000 | –
18 | COc1ccc(/C=C/C(=O)c2c(OC)cc(OC)cc2OC(=O)C(C)(C)C)cc1 [2',4,4'-trimethoxy-6'-(pivaloyloxy)-chalcone] | 0.01 to 0.03 (≈ 0.0251 to 0.0753 µM) | > 1000 | > 5000 | –
19 | COc1ccc(/C=C/C(=O)c2c(OC)cc(OC)cc2OC(=O)c2cnccn2)cc1 [2',4,4'-trimethoxy-6'-(pyrazinylcarbonyloxy)-chalcone] | 0.03 to 0.1 (≈ 0.0714 to 0.238 µM) | > 500 | > 4000 | –
20 | CCOc1ccc(/C=C/C(=O)c2c(O)cc(OC)cc2OCC)cc1 [2',4-diethoxy-6'-hydroxy-4'-methoxychalcone] | 0.1 (≈ 0.292 µM) | > 500 | > 5000 | –
21 | COc1cc(O)c(C(=O)/C=C/c2ccc(O)c(OC)c2)c(OC)c1 [2',4-dihydroxy-3,4',6'-trimethoxychalcone] | – | – | – | 0.3 to 1 (≈ 0.908 to 3.03 µM)
22 | COc1cc(O)c(C(=O)/C=C/c2ccc(O)cc2)c(OC)c1 [2',4-dihydroxy-4',6'-dimethoxychalcone] | 0.3 to 1 (≈ 0.999 to 3.33 µM) | > 500 | > 3200 | –

Row | Structure (SMILES) | IC50 (rhinovirus HGP; HeLa) [µg/mL] | LD50 at 504 h (in vivo; [1]) [mg/kg] | LD50 at 504 h (in vivo; [2]) [mg/kg] | IC50 (rhinovirus HGP; [3]) [µg/mL]
23 | COc1ccc(/C=C/C(=O)c2c(OC)cc(OC)cc2OC(=O)CCCC(=O)O)cc1 [2'-(4-carboxybutanoyloxy)-4,4',6'-trimethoxychalcone] | 0.03 (≈ 0.07 µM) | > 500 | > 2000 | –
24 | COc1ccc(/C=C/C(=O)c2c(OC)cc(OC)cc2OC(=O)[C@H](C)N)cc1 [2'-(L-alanyloxy)-4,4',6'-trimethoxychalcone] | 0.03 to 0.1 (≈ 0.0778 to 0.259 µM) | > 180 | > 1000 | –
25 | CCOC(=O)Oc1cc(OC)cc(OC)c1C(=O)/C=C/c1ccc(OC)cc1 [2'-(ethoxycarbonyloxy)-4,4',6'-trimethoxychalcone] | 0.04 (≈ 0.104 µM) | > 500 | > 4000 | –
26 | CCOc1cc(OC)cc(OC(=O)CC)c1C(=O)/C=C/c1ccc(OC)cc1 [2'-ethoxy-4,4'-dimethoxy-6'-(propionyloxy)-chalcone] | 0.02 to 0.06 (≈ 0.052 to 0.156 µM) | > 1000 | > 5000 | –
27 | CCOc1cc(OC)cc(O)c1C(=O)C=Cc1ccc(C)o1 [2'-ethoxy-6'-hydroxy-4'-methoxy-3-(5-methyl-2-furyl)-acrylophenone] | 0.04 (≈ 0.132 µM) | > 500 | > 1000 | –
28 | CCOc1cc(OC)cc(O)c1C(=O)/C=C/c1ccc(OC)cc1 [2'-ethoxy-6'-hydroxy-4,4'-dimethoxychalcone] | 0.01 (≈ 0.0305 µM) | > 500 | > 1000 | –
29 | COc1cc(O)c(C(=O)/C=C/c2cccc(OC)c2OC)c(OC)c1 [2'-hydroxy-2,3,4',6'-tetramethoxychalcone] | 0.1 (≈ 0.29 µM) | > 500 | > 1000 | –
30 | COc1ccc(/C=C/C(=O)c2c(O)cc(OC)cc2OC)c(OC)c1 [2'-hydroxy-2,4,4',6'-tetramethoxychalcone] | 0.1 (≈ 0.29 µM) | > 500 | > 1000 | –
31 | COc1cc(/C=C/C(=O)c2c(O)cc(OC)cc2OC)cc(OC)c1 [2'-hydroxy-3,4',5,6'-tetramethoxychalcone] | 0.3 (≈ 0.871 µM) | > 500 | > 5000 | –
32 | COc1cccc(/C=C/C(=O)c2c(O)cc(OC)cc2OC)c1 [2'-hydroxy-3,4',6'-trimethoxychalcone] | 0.1 (≈ 0.318 µM) | > 500 | > 1000 | –
33 | COc1cc(O)c(C(=O)/C=C/c2ccc(OC)c(OC)c2)c(OC)c1 [2'-hydroxy-3,4,4',6'-tetramethoxychalcone] | 0.1 to 0.3 (≈ 0.29 to 0.871 µM) | > 500 | > 500 | –
34 | COc1cc(O)c(C(=O)C=Cc2ccc3c(c2)OCO3)c(OC)c1 [2'-hydroxy-4',6'-dimethoxy-3,4-(methylenedioxy)-chalcone] | 0.02 (≈ 0.0609 µM) | > 1000 | > 5000 | –
35 | COc1cc(O)c(C(=O)C=Cc2cccn2C)c(OC)c1 [2'-hydroxy-4',6'-dimethoxy-3-(1-methyl-pyrrol-2-yl)-acrylophenone] | 0.1 (≈ 0.348 µM) | > 500 | > 1000 | –
36 | COc1cc(O)c(C(=O)C=Cc2sccc2C)c(OC)c1 [2'-hydroxy-4',6'-dimethoxy-3-(3-methyl-2-thienyl)-acrylophenone] | 0.1 (≈ 0.329 µM) | > 500 | > 1500 | –
37 | COc1cc(O)c(C(=O)C=Cc2cccnc2)c(OC)c1 [2'-hydroxy-4',6'-dimethoxy-3-(3-pyridyl)-acrylophenone] | – | – | – | 0.6 (≈ 2.1 µM)
38 | COc1cc(O)c(C(=O)C=Cc2ccc(C)o2)c(OC)c1 [2'-hydroxy-4',6'-dimethoxy-3-(5-methyl-2-furyl)-acrylophenone] | 0.03 (≈ 0.104 µM) | > 500 | > 2000 | –
39 | COc1cc(O)c(C(=O)/C=C/c2ccc(SC)cc2)c(OC)c1 [2'-hydroxy-4',6'-dimethoxy-4-(methylthio)-chalcone] | 0.03 (≈ 0.0908 µM) | > 1000 | > 5000 | –
40 | CCCOc1ccc(/C=C/C(=O)c2c(O)cc(OC)cc2OC)cc1 [2'-hydroxy-4',6'-dimethoxy-4-propoxychalcone] | 0.1 (≈ 0.292 µM) | > 500 | > 5000 | –
41 | COc1cc(O)c(C(=O)/C=C/c2ccccc2)c(OC)c1 [2'-hydroxy-4',6'-dimethoxychalcone] | 0.1 to 0.3 (≈ 0.352 to 1.06 µM) | > 1000 | > 5000 | –
42 | CCN(CC)c1ccc(/C=C/C(=O)c2c(O)cc(OC)cc2OC)cc1 [4-(diethylamino)-2'-hydroxy-4',6'-dimethoxychalcone] | – | – | – | 0.6 to 2 (≈ 1.69 to 5.63 µM)
43 | COc1cc(O)c(C(=O)/C=C/c2ccc(N)cc2)c(OC)c1 [4-amino-2'-hydroxy-4',6'-dimethoxychalcone] | – | – | – | 0.03 to 0.1 (≈ 0.1 to 0.334 µM)
